What was measured:
dengue virus type 2 = assay: Functional assay to measure dose dependent changes in antiviral-drug inhibitory efficacy against Dengue virus type 2 New Guinea C in Vero E6 miRFP670 cells (cotreated with P-gp inhibitor, CP100356). Cells are treated with antiviral candidates that are serially diluted, following infection, cells are fixed. EC50 is reported via analysis of fluorescence intensity using high-content imager. The …; format: organism-based, Chlorocebus sabaeus, Vero C1008; conditions: Dengue virus
Zika virus = assay: Functional CPE-based assay to measure dose dependent changes in antiviral-drug inhibitory efficacy against Zika virus MR766 in Vero E6 miRFP670 cells. Cells are treated with antiviral candidates that are serially diluted. EC50 is reported via analysis of MTS assay as a readout of CPE. The assay has been performed by KU Leuven.; format: organism-based, Chlorocebus sabaeus, Vero C1008; conditions: Zika virus; for EC50: Vero C1008

SMILES: OCC#C[C@H](Nc1ccc2c(c1)CNC2)c1cc(Cl)cc2[nH]ncc12
- EC50 (dengue virus type 2; Vero C1008): > 50 µM
- EC90 (dengue virus type 2; Vero C1008, Baseline response 0 %, Hill slope -0.86, Maximum measured 99.542 %, Maximum response 100 %, Minimum measured 57.079 %, P-gp concentration 500 nM, R squared 0.671, P-gp inhibitor CP100356): > 50 µM
- EC50 (Zika virus): > 50 µM
- EC90 (Zika virus; Vero C1008, Baseline response 0 %, Hill slope -0.322, Maximum measured 7.802 %, Maximum response 100 %, Minimum measured -1.073 %, R squared 0.225): > 50 µM
- EC90 (Zika virus; Vero C1008, Maximum measured -0.957 %, Minimum measured -6.863 %): > 50 µM

SMILES: NCc1cc(Cl)cc(C(=O)Nc2ccc3c(c2)CNC3)c1
- EC50 (dengue virus type 2; Vero C1008): > 50 µM
- EC90 (dengue virus type 2; Vero C1008, Maximum measured 110.007 %, Minimum measured 106.028 %, P-gp concentration 500 nM, P-gp inhibitor CP100356): > 50 µM
- EC50 (Zika virus): > 50 µM
- EC90 (Zika virus; Vero C1008, Maximum measured 0.38 %, Minimum measured -0.268 %): > 50 µM

SMILES: C[C@@]1(c2cccc(CN)c2)C[C@H]1c1cc(Cl)cc(NC(=O)OCc2ccccc2)c1
- EC50 (dengue virus type 2; Vero C1008): 2.11 µM
- EC90 (dengue virus type 2; Vero C1008, Baseline response 0 %, Hill slope -1.211, Maximum measured 80.402 %, Maximum response 100 %, Minimum measured 6.127 %, P-gp concentration 500 nM, R squared 0.862, P-gp inhibitor CP100356): > 6.25 µM
- EC50 (Zika virus): > 50 µM
- EC90 (Zika virus; Vero C1008, Maximum measured 2.64 %, Minimum measured -3.015 %): > 50 µM

SMILES: NCc1cccc(NC(=O)c2cc(Cl)cc3[nH]ncc23)c1
- EC50 (dengue virus type 2; Vero C1008): > 50 µM
- EC90 (dengue virus type 2; Vero C1008, Maximum measured 106.767 %, Minimum measured 104.405 %, P-gp concentration 500 nM, P-gp inhibitor CP100356): > 50 µM
- EC50 (Zika virus): > 50 µM
- EC90 (Zika virus; Vero C1008, Maximum measured 0.74 %, Minimum measured -1.239 %): > 50 µM

SMILES: O=C(Nc1cc(Cl)cc(C(=O)Nc2ccc3c(c2)CNCC3)c1)OCc1ccccc1
- EC50 (dengue virus type 2; Vero C1008): 1.52 µM
- EC90 (dengue virus type 2; Vero C1008): 1.8 µM
- EC50 (Zika virus): < 0.391 µM
- EC90 (Zika virus; Vero C1008, Baseline response 0 %, Hill slope -0.286, Maximum measured 50.319 %, Maximum response 100 %, Minimum measured -3.545 %, R squared 0.037): < 0.391 µM

SMILES: NCc1cc(/C=C/C(=O)O)cc(NC(=O)c2cc(Cl)cc(NC(=O)OCc3ccccc3)c2)c1
- EC50 (dengue virus type 2; Vero C1008): > 50 µM
- EC90 (dengue virus type 2; Vero C1008, Maximum measured 167.512 %, Minimum measured 81.46 %, P-gp concentration 500 nM, P-gp inhibitor CP100356): > 50 µM
- EC50 (Zika virus): > 50 µM
- EC90 (Zika virus; Vero C1008, Baseline response 0 %, Hill slope -0.386, Maximum measured 1.272 %, Maximum response 100 %, Minimum measured -0.891 %, R squared 0.02): > 50 µM

SMILES: O=C(NCC1CC1)c1cc(Cl)ccc1NS(=O)(=O)c1ccc(Oc2ccccc2Cl)cc1
- EC50 (dengue virus type 2; Vero C1008): 6.05 µM
- EC90 (dengue virus type 2; Vero C1008, Baseline response 0 %, Hill slope -26.927, Maximum measured 110.675 %, Maximum response 100 %, Minimum measured 0.394 %, P-gp concentration 500 nM, R squared 0.827, P-gp inhibitor CP100356): 6.57 µM
- EC50 (Zika virus): > 50 µM
- EC90 (Zika virus; Vero C1008, Maximum measured -0.067 %, Minimum measured -1.21 %): > 50 µM

SMILES: O=C(Nc1cccc(-c2nnn[nH]2)c1)c1cc(Cl)cc(C2CC2)c1
- EC50 (dengue virus type 2; Vero C1008): > 50 µM
- EC90 (dengue virus type 2; Vero C1008, Maximum measured 109.091 %, Minimum measured 105.083 %, P-gp concentration 500 nM, P-gp inhibitor CP100356): > 50 µM
- EC50 (Zika virus): > 50 µM
- EC90 (Zika virus; Vero C1008, Maximum measured 1.772 %, Minimum measured -2.796 %): > 50 µM

SMILES: NCc1cccc(NC(=O)c2cc(Cl)cc3c2cnn3CC2CC2)c1
- EC50 (dengue virus type 2; Vero C1008): 12.4 µM
- EC90 (dengue virus type 2; Vero C1008): > 12.5 µM
- EC50 (Zika virus): > 50 µM
- EC90 (Zika virus; Vero C1008, Baseline response 0 %, Hill slope 0.179, Maximum measured 64.548 %, Maximum response 100 %, Minimum measured -3.549 %, R squared 0.025): > 50 µM

SMILES: O=C(Nc1cc(Cl)cc(C(=O)Nc2cccc([C@H]3C[C@H]3C(=O)O)c2)c1)OCc1ccccc1
- EC50 (dengue virus type 2; Vero C1008): > 50 µM
- EC90 (dengue virus type 2; Vero C1008, Maximum measured 111.056 %, Minimum measured 105.114 %, P-gp concentration 500 nM, P-gp inhibitor CP100356): > 50 µM
- EC50 (Zika virus): > 50 µM
- EC90 (Zika virus; Vero C1008, Baseline response 0 %, Hill slope 7.946, Maximum measured 10.264 %, Maximum response 100 %, Minimum measured -1.789 %, R squared 0.722): > 50 µM

SMILES: CNC(=O)[C@H](Nc1cc(CN)cc(C(=O)O)c1)c1cc(Cl)cc(NC(=O)OCc2ccccc2)c1
- EC50 (dengue virus type 2; Vero C1008): > 50 µM
- EC90 (dengue virus type 2; Vero C1008, Maximum measured 124.943 %, Minimum measured 103.159 %, P-gp concentration 500 nM, P-gp inhibitor CP100356): > 50 µM
- EC50 (Zika virus): > 50 µM
- EC90 (Zika virus; Vero C1008, Baseline response 0 %, Hill slope -2.362, Maximum measured 1.225 %, Maximum response 100 %, Minimum measured -2.193 %, R squared 0.027): > 50 µM

SMILES: CCCNC(=O)[C@H](Nc1cccc(-c2nn[nH]n2)c1)c1cc(Cl)cc(NC(=O)OCc2ccccc2)c1
- EC50 (dengue virus type 2; Vero C1008): > 50 µM
- EC90 (dengue virus type 2; Vero C1008, Baseline response 0 %, Hill slope 1.238, Maximum measured 113.655 %, Maximum response 100 %, Minimum measured 85.317 %, P-gp concentration 500 nM, R squared 0.426, P-gp inhibitor CP100356): > 50 µM
- EC50 (Zika virus): > 50 µM
- EC90 (Zika virus; Vero C1008, Baseline response 0 %, Hill slope 3.408, Maximum measured 22.38 %, Maximum response 100 %, Minimum measured 1.712 %, R squared 0.919): > 50 µM

Reference: ChEMBL document CHEMBL5661943, “ASAP - In vitro antiviral effect” (2024)
